Measurements from ChEMBL document CHEMBL1201862, “PubChem BioAssay data set” (2004).
Calls of active or inactive are those of the source.

Assays:
Cytochrome P450 1A2 [1] = target: T1, Cytochrome P450 1A2 (Homo sapiens, UniProt P05177);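 further: PubChem cytochrome P450 panel assay, CYP1A2 panel member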
T1 sequence (P05177 whole entry): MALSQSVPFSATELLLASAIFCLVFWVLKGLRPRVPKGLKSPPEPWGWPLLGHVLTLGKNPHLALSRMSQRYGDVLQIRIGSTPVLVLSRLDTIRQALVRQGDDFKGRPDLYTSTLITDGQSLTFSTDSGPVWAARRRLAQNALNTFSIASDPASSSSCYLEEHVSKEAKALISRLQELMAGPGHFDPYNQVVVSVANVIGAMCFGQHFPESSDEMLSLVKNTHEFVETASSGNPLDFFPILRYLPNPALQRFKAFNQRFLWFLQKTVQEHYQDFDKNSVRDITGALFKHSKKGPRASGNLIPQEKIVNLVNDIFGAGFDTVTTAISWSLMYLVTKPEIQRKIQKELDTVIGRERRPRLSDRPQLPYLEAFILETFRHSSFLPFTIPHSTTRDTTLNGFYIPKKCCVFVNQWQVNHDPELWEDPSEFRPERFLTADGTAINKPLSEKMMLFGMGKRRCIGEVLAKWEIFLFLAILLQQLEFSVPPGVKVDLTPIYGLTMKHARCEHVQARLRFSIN

[2] = Luminescence Cell-Based Dose Confirmation HTS to Identify Activators of 5'UTR Stem-Loop Driven Alpha-Synuclein mRNA Translation in H4 Neuroglioblastoma Cells. [Related pubchem assays: 1829 (Project Summary), 1814 (Primary HTS)]; type: functional
[3] = A Cell Based Secondary Assay To Explore Cytotoxicity of Compounds that Sensitize Mycobacterium Tuberculosis to Beta-Lactam Antibiotics.; type: functional
H4 = experiment: Luminescence Cell-Based Dose Response HTS to Identify Activators of 5'UTR Stem-Loop Driven Prion Protein mRNA Translation in H4 Neuroglioblastoma Cells. [Related pubchem assays: 1829 (Project Summary), 1814 (Primary HTS)]; type: functional; settings: Homo sapiens
[4] = target: T2, Microphthalmia-associated transcription factor (Homo sapiens, UniProt O75030); experiment: reducers of TRPM1 reporter luminescence, concentration series – cell-based, SK-MEL-5, cherry-picked, set 3, MITF inhibitor project, dose response (AID 493073); type: functional;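 further: SK-MEL-5 melanoma cells with luciferase driven by the MITF target TRPM1 promoter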
T2 sequence (O75030 whole entry): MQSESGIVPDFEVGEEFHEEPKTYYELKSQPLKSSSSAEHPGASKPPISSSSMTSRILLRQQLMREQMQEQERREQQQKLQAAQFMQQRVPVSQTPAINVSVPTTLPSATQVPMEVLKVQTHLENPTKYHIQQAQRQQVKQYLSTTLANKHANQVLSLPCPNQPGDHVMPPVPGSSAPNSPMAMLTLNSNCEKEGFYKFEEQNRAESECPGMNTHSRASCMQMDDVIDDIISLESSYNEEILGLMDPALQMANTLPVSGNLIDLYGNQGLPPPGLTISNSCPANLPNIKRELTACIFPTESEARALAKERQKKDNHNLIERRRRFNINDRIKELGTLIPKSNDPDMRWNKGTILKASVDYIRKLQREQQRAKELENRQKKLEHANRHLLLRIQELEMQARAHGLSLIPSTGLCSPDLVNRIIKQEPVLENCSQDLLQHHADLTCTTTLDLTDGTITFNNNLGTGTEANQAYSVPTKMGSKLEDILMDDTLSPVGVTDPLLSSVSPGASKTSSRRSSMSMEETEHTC

A-375 = experiment: MITF: Counter assay: A375 proliferation Measured in Cell-Based System Using Plate Reader - 2084-03_Inhibitor_Dose_DryPowder_Activity. [Related pubchem assays (depositor defined):AID488944]; type: functional; settings: Homo sapiens
[5] = luciferase reporter signal suppression in cells – H4 neuroglioma cells, luminescence, dose response (AID 1990); type: functional, cell-based
[6] = Luminescence Cell-Based Dose Response HTS to Identify Inhibitors of 5'UTR Stem-Loop Driven Prion Protein mRNA Translation in H4 Neuroglioblastoma Cells. [Related pubchem assays: 1827 (Project Summary), 1813 (Primary HTS)]; type: functional
[7] = alpha-synuclein stem-loop luciferase translation blockers – H4 neuroglioma cells, luminescence, confirmation (AID 1988); type: functional, cell-based
[8] = target: T3, Replicative DNA helicase DnaB (Mycobacterium tuberculosis, UniProt P9WMR3); experiment: DnaB intein splicing inhibitors, dose response, biochemical, cell-free fluorescence (AID 449749); type: functional
T3 sequence (P9WMR3 whole entry): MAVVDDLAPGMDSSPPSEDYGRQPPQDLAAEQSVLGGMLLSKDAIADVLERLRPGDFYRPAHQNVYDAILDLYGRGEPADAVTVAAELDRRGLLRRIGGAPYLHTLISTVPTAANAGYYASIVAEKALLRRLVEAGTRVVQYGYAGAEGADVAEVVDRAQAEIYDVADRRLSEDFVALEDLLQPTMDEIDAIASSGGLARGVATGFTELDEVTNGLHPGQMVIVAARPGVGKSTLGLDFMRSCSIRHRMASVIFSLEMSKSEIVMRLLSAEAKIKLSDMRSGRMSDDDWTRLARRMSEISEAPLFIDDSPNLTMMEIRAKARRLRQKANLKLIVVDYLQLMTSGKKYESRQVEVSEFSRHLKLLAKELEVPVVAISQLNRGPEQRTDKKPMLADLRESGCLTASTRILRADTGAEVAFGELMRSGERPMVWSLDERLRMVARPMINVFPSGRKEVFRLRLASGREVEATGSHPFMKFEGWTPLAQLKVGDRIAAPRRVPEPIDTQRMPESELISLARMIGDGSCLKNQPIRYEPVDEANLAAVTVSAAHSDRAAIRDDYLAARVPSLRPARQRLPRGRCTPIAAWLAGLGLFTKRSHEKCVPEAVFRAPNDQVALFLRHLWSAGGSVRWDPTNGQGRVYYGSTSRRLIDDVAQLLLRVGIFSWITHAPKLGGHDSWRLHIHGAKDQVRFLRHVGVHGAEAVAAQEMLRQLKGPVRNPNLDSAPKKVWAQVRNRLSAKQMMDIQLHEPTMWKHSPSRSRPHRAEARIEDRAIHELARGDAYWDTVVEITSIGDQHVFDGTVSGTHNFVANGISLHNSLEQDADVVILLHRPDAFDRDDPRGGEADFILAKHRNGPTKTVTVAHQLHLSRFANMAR

Protein RecA = target: T4, Protein RecA (Mycobacterium tuberculosis, UniProt P9WHJ3); experiment: Fluorescence Cell-Free Homogeneous Dose Retest to Identify Inhibitors of RecA-Intein Splicing Activity. [Related pubchem assays (depositor defined):AID2097, AID2223, AID489010, AID492950]; type: functional
T4 sequence (P9WHJ3 whole entry): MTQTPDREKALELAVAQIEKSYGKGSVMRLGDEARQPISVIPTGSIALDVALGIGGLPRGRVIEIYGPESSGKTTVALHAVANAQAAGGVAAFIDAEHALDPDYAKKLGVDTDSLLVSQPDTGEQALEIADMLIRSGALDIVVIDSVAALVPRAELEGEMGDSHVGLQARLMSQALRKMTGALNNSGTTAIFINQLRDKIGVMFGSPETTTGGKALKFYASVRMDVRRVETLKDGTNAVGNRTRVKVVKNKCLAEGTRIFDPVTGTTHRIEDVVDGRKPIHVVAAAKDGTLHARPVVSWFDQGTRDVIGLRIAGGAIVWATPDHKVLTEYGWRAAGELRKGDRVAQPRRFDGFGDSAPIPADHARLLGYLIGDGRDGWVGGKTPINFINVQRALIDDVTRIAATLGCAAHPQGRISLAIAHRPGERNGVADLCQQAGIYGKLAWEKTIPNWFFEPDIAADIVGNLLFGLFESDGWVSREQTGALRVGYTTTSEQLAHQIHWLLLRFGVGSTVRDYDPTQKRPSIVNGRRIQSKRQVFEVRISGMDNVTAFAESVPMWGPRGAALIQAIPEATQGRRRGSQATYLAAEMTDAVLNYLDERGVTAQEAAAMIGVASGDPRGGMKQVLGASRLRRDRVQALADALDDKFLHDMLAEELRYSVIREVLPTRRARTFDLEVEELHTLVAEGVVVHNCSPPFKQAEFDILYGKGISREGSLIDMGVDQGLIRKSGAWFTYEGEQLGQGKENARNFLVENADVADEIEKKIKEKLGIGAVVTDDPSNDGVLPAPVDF

[9] = target: T5, Long-chain-fatty-acid--AMP ligase FadD28 (Mycobacterium tuberculosis, UniProt P9WQ59); experiment: Fluorescence polarization aasay to screen for inhibitors that compete for the binding of FadD28 to a bisubstrate Measured in Biochemical System Using Plate Reader - 2147-01_Inhibitor_Dose_CherryPick_Activity.; type: functional, Mycobacterium tuberculosis H37Rv
T5 sequence (P9WQ59 whole entry): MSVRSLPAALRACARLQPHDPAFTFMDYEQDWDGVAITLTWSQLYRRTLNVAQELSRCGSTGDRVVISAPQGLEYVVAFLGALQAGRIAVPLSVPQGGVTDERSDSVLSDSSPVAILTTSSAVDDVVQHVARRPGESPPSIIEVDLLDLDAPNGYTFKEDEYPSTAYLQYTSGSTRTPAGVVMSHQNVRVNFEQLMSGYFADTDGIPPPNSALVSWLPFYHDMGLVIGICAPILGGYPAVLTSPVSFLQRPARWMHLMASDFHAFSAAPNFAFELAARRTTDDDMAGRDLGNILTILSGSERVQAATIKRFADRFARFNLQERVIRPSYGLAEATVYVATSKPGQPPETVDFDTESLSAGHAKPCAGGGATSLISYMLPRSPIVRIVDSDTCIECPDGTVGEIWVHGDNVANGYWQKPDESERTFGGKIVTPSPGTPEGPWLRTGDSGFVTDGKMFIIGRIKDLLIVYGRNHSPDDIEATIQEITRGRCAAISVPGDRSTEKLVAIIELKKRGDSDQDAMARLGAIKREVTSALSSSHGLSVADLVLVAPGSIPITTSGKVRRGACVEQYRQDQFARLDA

Cytochrome P450 3A4 = Cytochrome P450 3A4 (Homo sapiens, UniProt P08684);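 further: CYP3A4 tested as one member of a cytochrome P450 panel screen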
Cytochrome P450 3A4, sequence (P08684 whole entry): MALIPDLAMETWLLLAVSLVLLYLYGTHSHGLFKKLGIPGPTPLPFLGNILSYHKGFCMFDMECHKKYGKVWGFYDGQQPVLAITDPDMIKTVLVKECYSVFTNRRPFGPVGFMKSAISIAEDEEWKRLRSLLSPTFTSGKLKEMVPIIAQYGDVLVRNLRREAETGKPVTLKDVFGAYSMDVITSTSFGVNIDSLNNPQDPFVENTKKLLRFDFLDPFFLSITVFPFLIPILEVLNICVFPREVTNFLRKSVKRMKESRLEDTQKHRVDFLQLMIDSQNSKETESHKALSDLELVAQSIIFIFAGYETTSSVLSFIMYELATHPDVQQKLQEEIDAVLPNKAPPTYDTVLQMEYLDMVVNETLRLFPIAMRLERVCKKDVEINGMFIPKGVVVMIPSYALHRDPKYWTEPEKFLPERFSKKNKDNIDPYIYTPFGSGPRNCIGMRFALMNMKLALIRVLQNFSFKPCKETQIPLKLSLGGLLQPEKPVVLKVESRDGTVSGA

Cytochrome P450 1A2 [10] = target: T1, Cytochrome P450 1A2; remark: listed apart in the source
[11] = target: T6, Heat shock factor protein 1 (Mus musculus, UniProt P38532); experiment: decrease of HSF1-responsive luciferase luminescence – cell-based, NIH3T3, dose retest, confirmation (AID 2382); type: functional;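 further: NIH3T3 fibroblasts with HSF1-driven luciferase reporter stressed by proteasome inhibitor MG132; luminescence from HSF1-driven luciferase expression after 8 hours of MG132 stress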
T6 sequence (P38532 whole entry): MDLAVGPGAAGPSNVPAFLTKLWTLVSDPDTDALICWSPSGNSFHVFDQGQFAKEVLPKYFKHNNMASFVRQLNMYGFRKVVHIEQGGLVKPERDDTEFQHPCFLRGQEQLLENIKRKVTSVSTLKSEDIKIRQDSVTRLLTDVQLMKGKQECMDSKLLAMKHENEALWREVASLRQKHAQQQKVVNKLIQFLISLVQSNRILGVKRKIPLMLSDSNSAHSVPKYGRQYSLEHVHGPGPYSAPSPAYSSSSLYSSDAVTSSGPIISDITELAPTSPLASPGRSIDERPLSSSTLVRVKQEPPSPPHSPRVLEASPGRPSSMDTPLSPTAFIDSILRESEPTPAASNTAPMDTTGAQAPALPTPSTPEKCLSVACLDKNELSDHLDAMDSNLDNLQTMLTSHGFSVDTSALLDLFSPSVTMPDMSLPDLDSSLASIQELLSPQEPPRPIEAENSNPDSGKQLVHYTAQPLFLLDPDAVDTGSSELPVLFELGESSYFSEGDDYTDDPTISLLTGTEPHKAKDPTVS

Jurkat = experiment: blockers of NF-kB activation in T cells – Jurkat, luciferase reporter, luminescence, B- and T-cell, dose response (AID 489004); type: functional, cell-based; settings: Homo sapiens;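 further: NF-kB luciferase reporter Jurkat cells stimulated with PMA plus ionomycin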
[12] = HEK-293T viability loss, compound-treated – cell-based, uHTS hits, cytotoxicity control for B/T-cell NF-kB inhibitor project, dose response (AID 489019); type: functional;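 further: IC50 reflects cytotoxicity as loss of cell viability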
Paired box protein Pax-8 = Paired box protein Pax-8 (Homo sapiens, UniProt Q06710); experiment: PAX8 transcriptional activity inhibition in RMG-I – RMG-I cells, luciferase, cherry-pick, dose response (AID 687027); type: functional, cell-based;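 further: luciferase reporter driven by Pax8 target thyroperoxidase promoter measured by SteadyGlo luminescence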
Paired box protein Pax-8, sequence (Q06710 whole entry): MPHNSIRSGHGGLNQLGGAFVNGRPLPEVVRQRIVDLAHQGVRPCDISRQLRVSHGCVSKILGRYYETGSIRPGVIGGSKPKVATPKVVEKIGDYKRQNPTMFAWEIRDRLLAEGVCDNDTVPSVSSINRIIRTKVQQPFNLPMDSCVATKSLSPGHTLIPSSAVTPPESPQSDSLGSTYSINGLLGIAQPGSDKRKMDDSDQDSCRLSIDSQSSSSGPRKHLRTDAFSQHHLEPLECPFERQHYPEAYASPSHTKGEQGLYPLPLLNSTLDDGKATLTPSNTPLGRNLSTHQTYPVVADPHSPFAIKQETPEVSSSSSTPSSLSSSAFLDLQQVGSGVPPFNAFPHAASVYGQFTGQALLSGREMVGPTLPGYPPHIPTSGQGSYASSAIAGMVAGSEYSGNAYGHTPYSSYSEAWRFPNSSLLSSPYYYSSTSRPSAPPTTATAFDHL

[13] = HGIII-sPLA2 enzyme inhibition potency – biochemical, QFRET, IC50, dose response (AID 743457);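 further: green fluorescence rise as the enzyme cleaves BODIPY PC-A2 in liposomes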
[14] = general cell-killing toxicity readout – plate reader, dry powder samples, cytotoxicity control for PAX8 inhibitor project, dose response (AID 743021); type: functional, cell-based

With `COc1ccc(CCN(C)CCC[C@@](C#N)(c2cc(OC)c(OC)c(OC)c2)C(C)C)cc1OC` the AC50 (Cytochrome P450 1A2 [1]) was “inactive”.
For `O=C(CCl)N(c1ccccc1)C1CCS(=O)(=O)C1` (stereo not given), the EC50 [2] was > 120 µM (not active), the CC50 [3] was 6.82 µM (active) and the EC50 (H4) was > 120 µM (not active). The AC50 [4] was 9.35 µM (active) and the AC50 (A-375) was 27.7 µM (active).
In the case of `O=C1C([N-]S(=O)(=O)c2cccs2)=C([n+]2ccccc2)C(=O)c2ccccc21`, the EC50 [5] is reported as 12.9 µM (active), the EC50 [6] is reported as 14.2 µM (active) and the EC50 [7] is reported as > 120 µM (not active). The AC50 [4] was 1.07 µM (active), the AC50 [8] was 10.2 µM (active) and the EC50 (Protein RecA) was 6.59 µM (active). For the same compound, the AC50 (A-375) was 25.5 µM (active) and the AC50 [9] was > 100 µM (inactive).
In the case of `Cn1ncc2c(Nc3cccc(C(=O)O)c3)ncnc21`, the AC50 (Cytochrome P450 3A4) is reported as “inconclusive”.
For `COC(=O)N1CCC2(CC1)CN(c1ccc(-c3ccccc3)cc1)C2`, the AC50 (Cytochrome P450 1A2 [10]) was 1.26 µM (inconclusive) and the AC50 (Cytochrome P450 3A4) was “inconclusive”.
With `C/N=c1\scc(-c2ccccc2F)n1/N=C/c1ccc[nH]1` the EC50 [11] was < 0.16 µM (active), the IC50 (Jurkat) was 0.38 µM (active) and the IC50 [12] was > 80 µM (inactive). The AC50 [4] was 0.019 µM (active), the AC50 (Paired box protein Pax-8) was < 0.26 µM (active) and the IC50 [13] was 50.6 µM (inactive). For the same compound, the AC50 [14] was 44.3 µM (active).
With `CCC(=O)O[C@H](CC(=O)[O-])C[N+](C)(C)C` the AC50 (Cytochrome P450 1A2 [1]) was “inconclusive”.
